The values below are quoted from earlier work in US20120251478A1, “Method for treatment of a glomerular disease comprising administration of anion exchange resin” (priority 2006, published 2012).

The structures appear in SMILES notation.

The series concerns apparent albuminuria. The note with it: reports, nonpatent reference 2.

`COc1ccc(Cl)cc1C(=O)NCCc1ccc(S(=O)(=O)NC(=O)NC2CCCCC2)cc1` [glibenclamide]: the apparent albuminuria entry is given as “not ameliorated”.
